The values below come from ChEMBL document CHEMBL1133274 (Bioorg Med Chem Lett, 2000).

SMILES strings stand for the structures.

The species named for experiment [1] is Homo sapiens. Kind of experiment: Cytotoxicity of compound was determined against Lo Vo colon cancer cells. Type of experiment: functional, cell-based. The settings on record: Cancer cell lines.
The species entered for experiment [2] is Homo sapiens. Kind of experiment: Cytotoxicity of compound was determined against Lo Vo colon cancer cells in presence of GUS from Escherichia coli. Type of experiment: functional, cell-based. The settings on record: Cancer cell lines.

Usually IC50 stands for the concentration that inhibits the measured activity by half.

As for `O=C(O)[C@@H]1O[C@@H](Oc2ccc(COC(=O)N(CCCl)CCCl)cc2[N+](=O)[O-])[C@@H](O)[C@@H](O)[C@@H]1O`, the IC50 in experiment [1] was over 400 µM; in experiment [2], 95 µM.
